Measured values: the NIST ThermoML archive (doi:10.1021/acs.jced.8b00554)
± gives the expanded uncertainty stated by the source.

Assay: xn = mol fraction of the nth substance listed
Conditions: Liquid, Vibrating tube method

CCCCCCCC [octane] + CCCO
mass density [kg/m3]
Conditions | 343.15 K | 353.15 K
100 kPa, x2 = 0.1631 | 665.21 ± 4.3 | 654.7 ± 4.2
100 kPa, x2 = 0.2111 | 667.28 ± 4.3 | 656.5 ± 4.2
100 kPa, x2 = 0.3158 | 672.81 ± 4.3 | 661.43 ± 4.2
100 kPa, x2 = 0.4411 | 681.54 ± 4.4 | 669.56 ± 4.3
100 kPa, x2 = 0.7301 | 709.96 ± 4.5 | 697.88 ± 4.5
100 kPa, x2 = 0.8823 | 734.38 ± 4.7 | 723.05 ± 4.6
1000 kPa, x2 = 0.3158 | – | 663.09 ± 4.2
1000 kPa, x2 = 0.8823 | 735.58 ± 4.7 | –
1010 kPa, x2 = 0.1631 | – | 656.23 ± 4.2
1010 kPa, x2 = 0.2111 | 668.8 ± 4.3 | 658.1 ± 4.2
1010 kPa, x2 = 0.4411 | 682.72 ± 4.4 | 671.12 ± 4.3
1010 kPa, x2 = 0.7301 | 711.47 ± 4.6 | –
1010 kPa, x2 = 0.8823 | – | 724.42 ± 4.6
1020 kPa, x2 = 0.1631 | 666.65 ± 4.3 | –
1020 kPa, x2 = 0.3158 | 674.29 ± 4.3 | –
1020 kPa, x2 = 0.7301 | – | 699.6 ± 4.5
2000 kPa, x2 = 0.1631 | 667.79 ± 4.3 | –
2000 kPa, x2 = 0.4411 | – | 672.33 ± 4.3
2010 kPa, x2 = 0.2111 | 669.99 ± 4.3 | 659.4 ± 4.2
2010 kPa, x2 = 0.3158 | – | 664.39 ± 4.3
2010 kPa, x2 = 0.4411 | 683.85 ± 4.4 | –
2010 kPa, x2 = 0.8823 | 736.66 ± 4.7 | –
2020 kPa, x2 = 0.1631 | – | 657.52 ± 4.2
2020 kPa, x2 = 0.3158 | 675.48 ± 4.3 | –
2020 kPa, x2 = 0.7301 | 712.6 ± 4.6 | 700.81 ± 4.5
2020 kPa, x2 = 0.8823 | – | 725.57 ± 4.7
3000 kPa, x2 = 0.1631 | – | 658.76 ± 4.2
3000 kPa, x2 = 0.2111 | 671.1 ± 4.3 | –
3000 kPa, x2 = 0.3158 | 676.61 ± 4.3 | –
3000 kPa, x2 = 0.4411 | 685.01 ± 4.4 | –
3000 kPa, x2 = 0.7301 | – | 702.03 ± 4.5
3010 kPa, x2 = 0.3158 | – | 665.6 ± 4.3
3010 kPa, x2 = 0.4411 | – | 673.58 ± 4.3
3010 kPa, x2 = 0.7301 | 713.72 ± 4.6 | –
3010 kPa, x2 = 0.8823 | – | 726.72 ± 4.7
3020 kPa, x2 = 0.1631 | 668.96 ± 4.3 | –
3020 kPa, x2 = 0.2111 | – | 660.63 ± 4.2
3020 kPa, x2 = 0.8823 | 737.74 ± 4.7 | –
4000 kPa, x2 = 0.3158 | 677.77 ± 4.3 | –
4000 kPa, x2 = 0.8823 | 738.79 ± 4.7 | 727.86 ± 4.7
4010 kPa, x2 = 0.2111 | – | 661.88 ± 4.2
4010 kPa, x2 = 0.3158 | – | 666.84 ± 4.3
4010 kPa, x2 = 0.4411 | 686.15 ± 4.4 | 674.84 ± 4.3
4010 kPa, x2 = 0.7301 | 714.83 ± 4.6 | 703.25 ± 4.5
4020 kPa, x2 = 0.1631 | 670.09 ± 4.3 | 659.99 ± 4.2
4020 kPa, x2 = 0.2111 | 672.25 ± 4.3 | –
5000 kPa, x2 = 0.2111 | – | 663.08 ± 4.2
5000 kPa, x2 = 0.4411 | – | 676.07 ± 4.3
5000 kPa, x2 = 0.7301 | 715.96 ± 4.6 | –
5010 kPa, x2 = 0.1631 | 671.22 ± 4.3 | 661.2 ± 4.2
5010 kPa, x2 = 0.3158 | – | 668.06 ± 4.3
5010 kPa, x2 = 0.4411 | 687.28 ± 4.4 | –
5010 kPa, x2 = 0.7301 | – | 704.44 ± 4.5
5010 kPa, x2 = 0.8823 | 739.88 ± 4.7 | –
5020 kPa, x2 = 0.2111 | 673.37 ± 4.3 | –
5020 kPa, x2 = 0.3158 | 678.9 ± 4.3 | –
5020 kPa, x2 = 0.8823 | – | 729.03 ± 4.7
6000 kPa, x2 = 0.4411 | – | 677.27 ± 4.3
6000 kPa, x2 = 0.7301 | – | 705.64 ± 4.5
6010 kPa, x2 = 0.1631 | 672.33 ± 4.3 | –
6010 kPa, x2 = 0.3158 | – | 669.31 ± 4.3
6010 kPa, x2 = 0.4411 | 688.39 ± 4.4 | –
6010 kPa, x2 = 0.8823 | 740.91 ± 4.8 | –
6020 kPa, x2 = 0.1631 | – | 662.41 ± 4.2
6020 kPa, x2 = 0.2111 | 674.49 ± 4.3 | 664.26 ± 4.3
6020 kPa, x2 = 0.3158 | 680.02 ± 4.4 | –
6020 kPa, x2 = 0.7301 | 717.05 ± 4.6 | –
6020 kPa, x2 = 0.8823 | – | 730.16 ± 4.7
7000 kPa, x2 = 0.7301 | – | 706.83 ± 4.5
7000 kPa, x2 = 0.8823 | 741.99 ± 4.8 | 731.28 ± 4.7
7010 kPa, x2 = 0.1631 | 673.46 ± 4.3 | 663.61 ± 4.2
7010 kPa, x2 = 0.2111 | 675.59 ± 4.3 | 665.47 ± 4.3
7010 kPa, x2 = 0.4411 | 689.51 ± 4.4 | –
7010 kPa, x2 = 0.7301 | 718.15 ± 4.6 | –
7020 kPa, x2 = 0.3158 | 681.12 ± 4.4 | 670.48 ± 4.3
7020 kPa, x2 = 0.4411 | – | 678.5 ± 4.3
8000 kPa, x2 = 0.2111 | 676.71 ± 4.3 | –
8000 kPa, x2 = 0.3158 | 682.22 ± 4.4 | –
8000 kPa, x2 = 0.8823 | 743 ± 4.8 | –
8010 kPa, x2 = 0.1631 | 674.54 ± 4.3 | 664.82 ± 4.3
8010 kPa, x2 = 0.3158 | – | 671.68 ± 4.3
8010 kPa, x2 = 0.4411 | 690.61 ± 4.4 | 679.69 ± 4.4
8010 kPa, x2 = 0.7301 | – | 708 ± 4.5
8020 kPa, x2 = 0.2111 | – | 666.69 ± 4.3
8020 kPa, x2 = 0.7301 | 719.22 ± 4.6 | –
8020 kPa, x2 = 0.8823 | – | 732.4 ± 4.7
9000 kPa, x2 = 0.1631 | 675.63 ± 4.3 | 666 ± 4.3
9000 kPa, x2 = 0.4411 | 691.72 ± 4.4 | –
9000 kPa, x2 = 0.7301 | 720.31 ± 4.6 | –
9010 kPa, x2 = 0.2111 | 677.8 ± 4.3 | 667.86 ± 4.3
9010 kPa, x2 = 0.3158 | 683.34 ± 4.4 | 672.89 ± 4.3
9010 kPa, x2 = 0.4411 | – | 680.87 ± 4.4
9010 kPa, x2 = 0.7301 | – | 709.2 ± 4.5
9010 kPa, x2 = 0.8823 | 744.04 ± 4.8 | –
9020 kPa, x2 = 0.8823 | – | 733.54 ± 4.7
10000 kPa, x2 = 0.8823 | – | 734.63 ± 4.7
10010 kPa, x2 = 0.1631 | – | 667.15 ± 4.3
10010 kPa, x2 = 0.2111 | 678.85 ± 4.3 | 669.02 ± 4.3
10010 kPa, x2 = 0.3158 | 684.4 ± 4.4 | –
10010 kPa, x2 = 0.4411 | 692.81 ± 4.4 | –
10010 kPa, x2 = 0.8823 | 745.05 ± 4.8 | –
10020 kPa, x2 = 0.1631 | 676.71 ± 4.3 | –
10020 kPa, x2 = 0.7301 | 721.36 ± 4.6 | –
11000 kPa, x2 = 0.4411 | 693.87 ± 4.5 | –
11010 kPa, x2 = 0.2111 | 679.93 ± 4.4 | –
11010 kPa, x2 = 0.3158 | 685.49 ± 4.4 | –
11020 kPa, x2 = 0.1631 | 677.8 ± 4.3 | –
11020 kPa, x2 = 0.7301 | 722.39 ± 4.6 | –
11020 kPa, x2 = 0.8823 | 746.05 ± 4.8 | –
12000 kPa, x2 = 0.3158 | 686.55 ± 4.4 | –
12010 kPa, x2 = 0.2111 | 681 ± 4.4 | –
12010 kPa, x2 = 0.7301 | 723.42 ± 4.6 | –
12010 kPa, x2 = 0.8823 | 747.05 ± 4.8 | –
12020 kPa, x2 = 0.1631 | 678.83 ± 4.3 | –
12020 kPa, x2 = 0.4411 | 694.93 ± 4.5 | –
13000 kPa, x2 = 0.2111 | 682.04 ± 4.4 | –
13010 kPa, x2 = 0.3158 | 687.6 ± 4.4 | –
13010 kPa, x2 = 0.4411 | 695.99 ± 4.5 | –
13010 kPa, x2 = 0.8823 | 748.05 ± 4.8 | –
13020 kPa, x2 = 0.1631 | 679.88 ± 4.4 | –
13020 kPa, x2 = 0.7301 | 724.48 ± 4.6 | –
14000 kPa, x2 = 0.2111 | 683.07 ± 4.4 | –
14000 kPa, x2 = 0.7301 | 725.49 ± 4.7 | –
14000 kPa, x2 = 0.8823 | 749.02 ± 4.8 | –
14010 kPa, x2 = 0.1631 | 680.88 ± 4.4 | –
14010 kPa, x2 = 0.4411 | 697.01 ± 4.5 | –
14020 kPa, x2 = 0.3158 | 688.64 ± 4.4 | –
15000 kPa, x2 = 0.2111 | 684.09 ± 4.4 | –
15000 kPa, x2 = 0.8823 | 749.96 ± 4.8 | –
15010 kPa, x2 = 0.1631 | 681.89 ± 4.4 | –
15010 kPa, x2 = 0.3158 | 689.64 ± 4.4 | –
15010 kPa, x2 = 0.7301 | 726.47 ± 4.7 | –
15020 kPa, x2 = 0.4411 | 698 ± 4.5 | –
16000 kPa, x2 = 0.2111 | 685.06 ± 4.4 | –
16000 kPa, x2 = 0.3158 | 690.66 ± 4.4 | –
16000 kPa, x2 = 0.4411 | 699.01 ± 4.5 | –
16010 kPa, x2 = 0.1631 | 682.9 ± 4.4 | –
16010 kPa, x2 = 0.7301 | 727.46 ± 4.7 | –
16010 kPa, x2 = 0.8823 | 750.92 ± 4.8 | –
17000 kPa, x2 = 0.8823 | 751.86 ± 4.8 | –
17010 kPa, x2 = 0.1631 | 683.85 ± 4.4 | –
17010 kPa, x2 = 0.2111 | 686.08 ± 4.4 | –
17010 kPa, x2 = 0.3158 | 691.65 ± 4.4 | –
17010 kPa, x2 = 0.4411 | 699.99 ± 4.5 | –
17010 kPa, x2 = 0.7301 | 728.43 ± 4.7 | –
18000 kPa, x2 = 0.1631 | 684.83 ± 4.4 | –
18000 kPa, x2 = 0.7301 | 729.35 ± 4.7 | –
18010 kPa, x2 = 0.3158 | 692.6 ± 4.5 | –
18010 kPa, x2 = 0.4411 | 700.97 ± 4.5 | –
18020 kPa, x2 = 0.2111 | 687.03 ± 4.4 | –
18020 kPa, x2 = 0.8823 | 752.76 ± 4.8 | –
19000 kPa, x2 = 0.1631 | 685.78 ± 4.4 | –
19010 kPa, x2 = 0.3158 | 693.56 ± 4.5 | –
19010 kPa, x2 = 0.8823 | 753.68 ± 4.8 | –
19020 kPa, x2 = 0.2111 | 687.96 ± 4.4 | –
19020 kPa, x2 = 0.4411 | 701.92 ± 4.5 | –
19020 kPa, x2 = 0.7301 | 730.28 ± 4.7 | –
20000 kPa, x2 = 0.7301 | 731.24 ± 4.7 | –
20010 kPa, x2 = 0.1631 | 686.67 ± 4.4 | –
20010 kPa, x2 = 0.2111 | 688.89 ± 4.4 | –
20010 kPa, x2 = 0.3158 | 694.48 ± 4.5 | –
20010 kPa, x2 = 0.4411 | 702.85 ± 4.5 | –
20020 kPa, x2 = 0.8823 | 754.54 ± 4.8 | –
